Source: US11214803B2, “Modulators of YAP1 expression” (Ionis Pharmaceuticals, Inc., priority 2019, dated 2022)
Marks after values point to notes of the source that are not given here. Strand notation (5' to 3'): a small letter for the sugar, then the base; units joined by * are phosphorothioate-linked, units joined directly phosphodiester-linked; [ ] holds rarer units or linkages, { } end groups; capitals alone tell only the bases. k = constrained ethyl (cEt); [5mC] = 5-methylcytosine; d = 2'-deoxy (DNA)

Tested on: Yap1 mRNA
Experiment: Antisense inhibition of human Yap1 in A-431 cells by cEt gapmers, single dose (Example 4, RTS4814)
Type: cell-based
Method in brief: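 A-431 cells took up 3-10-3 cEt gapmers (16-mer, full phosphorothioate, 5-methylcytosines) by free uptake at 2,000 nM for about 48 h. Yap1 mRNA was quantified by qRT-PCR, normalized to total RNA (RIBOGREEN), and reported as % of untreated control.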

[1] = Table 16, A-431 cells, 5,000 cells per well, free uptake, 2,000 nM, approximately 48 hours, RTS4814, normalized to RIBOGREEN, Yap1 mRNA relative to untreated control cells
[2] = Table 17, A-431 cells, 5,000 cells per well, free uptake, 2,000 nM, approximately 48 hours, RTS4814, normalized to RIBOGREEN, Yap1 mRNA relative to untreated control cells
[3] = Yap1 mRNA remaining as percent of untreated control, 3-10-3 cEt gapmers, A-431 cells, Table 37
[4] = Table 15, A-431 cells, 5,000 cells per well, free uptake, 2,000 nM, approximately 48 hours, RTS4814, normalized to RIBOGREEN, Yap1 mRNA relative to untreated control, * = targets amplicon region of primer probe set
[5] = Yap1 mRNA remaining as percent of untreated control, 3-10-3 cEt gapmers, A-431 cells, Table 36
[6] = Table 14, A-431 cells, 5,000 cells per well, free uptake, 2,000 nM, approximately 48 hours, RTS4814, normalized to RIBOGREEN, Yap1 mRNA relative to untreated control, * = targets amplicon region of primer probe set

## 1075266 (antisense kT*kA*kT*dT*dA*dG*dG*dA*d[5mC]*dA*dA*dA*dG*kT*kA*k[5mC]) [Compound 1075266]
[1]
  YAP1 (% UTC): 57 % UTC

## 1075395 (kA*kT*kG*dA*dA*dT*dA*dA*dG*dT*dA*dT*dG*k[5mC]*k[5mC]*kA; antisense) [Compound 1075395]
[2]
  YAP1 (% UTC): 4 % UTC

## 1074519 (kA*k[5mC]*kT*dA*d[5mC]*dT*dA*dG*dT*d[5mC]*dA*dT*dG*kT*kA*kT; antisense) [compound 1074519]
[3]
  YAP1 (% UTC): 45 % UTC

## 1075809 (kT*kA*kG*d[5mC]*dA*dA*dT*dA*dG*dA*dG*dT*dA*kA*k[5mC]*k[5mC]; antisense) [Compound 1075809]
[4]
  YAP1 (% UTC): 13 % UTC

## 1074115 (antisense kA*kG*kA*dA*d[5mC]*dT*dT*dT*dT*dT*d[5mC]*d[5mC]*d[5mC]*kT*k[5mC]*k[5mC]) [Compound 1074115]
[2]
  YAP1 (% UTC): 33 % UTC

## 1076535 (kA*kT*kT*dT*dT*dT*dA*dG*d[5mC]*dT*d[5mC]*dG*d[5mC]*kA*kA*kT; antisense) [compound 1076535]
[3]
  YAP1 (% UTC): 28 % UTC

## 1076375 (antisense kT*kA*kT*dA*dA*d[5mC]*dG*dG*dA*dT*dA*dT*dA*k[5mC]*kA*kA) [compound 1076375]
[3]
  YAP1 (% UTC): 22 % UTC

## 1074499 (kT*kA*k[5mC]*dA*dA*dT*dA*dA*d[5mC]*d[5mC]*dA*dT*d[5mC]*k[5mC]*k[5mC]*kA; antisense) [Compound 1074499]
[2]
  YAP1 (% UTC): 10 % UTC

## 1075043 (antisense k[5mC]*k[5mC]*k[5mC]*d[5mC]*dA*dA*dA*dA*dG*d[5mC]*d[5mC]*d[5mC]*dT*kA*k[5mC]*kT) [Compound 1075043]
[2]
  YAP1 (% UTC): 73 % UTC

## 1075510 (kG*kA*kA*dT*dA*dA*d[5mC]*dA*d[5mC]*dA*dT*dA*dA*kT*k[5mC]*k[5mC]; antisense) [compound 1075510]
[5]
  YAP1 (% UTC): 83 % UTC

## 1075840 (k[5mC]*k[5mC]*kT*dA*dA*dA*dA*dT*dA*dG*dG*dA*dA*kT*kG*k[5mC]; antisense) [Compound 1075840]
[6]
  YAP1 (% UTC): 89 % UTC

## 1074710 (antisense k[5mC]*kT*k[5mC]*dT*dA*dG*dA*dA*d[5mC]*dA*dG*d[5mC]*dT*kG*k[5mC]*k[5mC]) [compound 1074710]
[5]
  YAP1 (% UTC): 42 % UTC

## 1075105 (antisense kA*kA*kT*dT*dA*dT*dA*dA*dG*dG*dT*d[5mC]*d[5mC]*kT*kA*k[5mC]) [Compound 1075105]
[4]
  YAP1 (% UTC): 42 % UTC

## 1076258 (k[5mC]*kT*kT*dT*dA*dG*dG*dT*dG*d[5mC]*d[5mC]*dT*d[5mC]*k[5mC]*kT*kT; antisense) [Compound 1076258]
[1]
  YAP1 (% UTC): 10 % UTC

## 1076246 (kT*k[5mC]*k[5mC]*dT*dA*dA*dA*dA*dA*dA*d[5mC]*dT*dA*kG*kT*kG; antisense) [compound 1076246]
[5]
  YAP1 (% UTC): 75 % UTC

## 1074208 (antisense kG*kT*kG*d[5mC]*dA*d[5mC]*dG*dA*dT*d[5mC]*dT*dG*dA*kT*kG*k[5mC]) [Compound 1074208]
[6]
  YAP1 (% UTC): 96 % UTC

## 1074423 (k[5mC]*kA*kA*dA*d[5mC]*dA*dG*dG*d[5mC]*dT*d[5mC]*dA*d[5mC]*kT*kT*k[5mC]; antisense) [compound 1074423]
[3]
  YAP1 (% UTC): 4* % UTC

## 1076545 (antisense kA*kA*k[5mC]*d[5mC]*dA*dA*d[5mC]*d[5mC]*dT*dT*d[5mC]*d[5mC]*d[5mC]*kT*kA*k[5mC]) [Compound 1076545]
[4]
  YAP1 (% UTC): 68 % UTC

## 1076098 (kT*kT*kA*d[5mC]*dA*dA*dT*dA*dA*dT*dA*dA*dA*k[5mC]*kG*kA; antisense) [Compound 1076098]
[1]
  YAP1 (% UTC): 94 % UTC

## 1075520 (k[5mC]*k[5mC]*k[5mC]*d[5mC]*dA*dA*d[5mC]*dA*dA*d[5mC]*dT*dG*d[5mC]*kT*kA*kA; antisense) [Compound 1075520]
[6]
  YAP1 (% UTC): 77 % UTC

## 1074626 (antisense k[5mC]*kT*kG*dT*dT*dA*dT*dG*dA*dA*d[5mC]*d[5mC]*d[5mC]*kT*kT*kG) [Compound 1074626]
[1]
  YAP1 (% UTC): 5 % UTC

## 1075031 (antisense kA*kT*kT*dT*dA*dA*dT*dA*dT*dT*d[5mC]*dG*dA*k[5mC]*kA*k[5mC]) [compound 1075031]
[3]
  YAP1 (% UTC): 52 % UTC

## 1076353 (kA*kT*kT*dA*dA*dA*d[5mC]*dA*dT*dT*d[5mC]*dG*dG*kA*kT*kT; antisense) [Compound 1076353]
[4]
  YAP1 (% UTC): 30 % UTC

## 1075554 (kT*kT*kG*d[5mC]*dA*dA*dT*dA*dG*dT*d[5mC]*dA*d[5mC]*k[5mC]*k[5mC]*kA; antisense) [Compound 1075554]
[1]
  YAP1 (% UTC): 56 % UTC

## 1075894 (antisense k[5mC]*kT*k[5mC]*dG*dA*dA*dA*dG*d[5mC]*dT*dG*dG*dG*k[5mC]*k[5mC]*k[5mC]) [compound 1075894]
[5]
  YAP1 (% UTC): 100 % UTC
